Converted amounts (≈) assume the structure as drawn. The source made the active and inactive calls. The calls are words filed in the database; no cut-off is given here.
Columns and labels:
[1] = tested on: Pseudomonas aeruginosa; assay: Antimicrobial activity against Pseudomonas aeruginosa MTCC 741 by agar streak dilution method; assay type: functional
[2] = tested on: Shigella flexneri; assay: Antimicrobial activity against Shigella flexneri MTCC 1457 by paper disk diffusion method; assay type: functional
[3] = tested on: Pseudomonas aeruginosa; assay: Antimicrobial activity against Pseudomonas aeruginosa MTCC 741 at 100 ug/ml by paper disk diffusion method; assay type: functional, organism-based
[4] = tested on: Salmonella typhi; assay: Antimicrobial activity against Salmonella enterica subsp. enterica serovar Typhi MTCC 733 by paper disk diffusion method; assay type: functional
[5] = tested on: Staphylococcus aureus; assay: Antimicrobial activity against Staphylococcus aureus MTCC 96 by paper-disk diffusion method; assay type: functional
[6] = tested on: Mycobacterium tuberculosis; assay: Antimicrobial activity against Mycobacterium tuberculosis H37Rv by BACTEC MGIT method; assay type: functional; conditions: for MIC: Mycobacterium tuberculosis, H37Rv
[7] = tested on: Candida albicans; assay: Antimicrobial activity against Candida albicans MTCC 183 by paper-disk diffusion method; assay type: functional
[8] = tested on: Klebsiella pneumoniae; assay: Antimicrobial activity against Klebsiella pneumoniae MTCC 109 by agar streak dilution method; assay type: functional
[9] = tested on: Aspergillus fumigatus; assay: Antimicrobial activity against Aspergillus fumigatus MTCC 343 by paper-disk diffusion method; assay type: functional
[10] = tested on: Aspergillus clavatus; assay: Antimicrobial activity against Aspergillus clavatus MTCC 1323 by agar streak dilution method; assay type: functional
[11] = tested on: Candida albicans; assay: Antimicrobial activity against Candida albicans MTCC 183 by agar streak dilution method; assay type: functional
[12] = tested on: Bacillus cereus; assay: Antimicrobial activity against Bacillus cereus MTCC 619 by agar streak dilution method; assay type: functional
[13] = tested on: Shigella flexneri; assay: Antimicrobial activity against Shigella flexneri MTCC 1457 by agar streak dilution method; assay type: functional
[14] = tested on: Aspergillus fumigatus; assay: Antimicrobial activity against Aspergillus fumigatus MTCC 343 by agar streak dilution method; assay type: functional
[15] = tested on: Salmonella typhi; assay: Antimicrobial activity against Salmonella enterica subsp. enterica serovar Typhi MTCC 733 by agar streak dilution method; assay type: functional
[16] = tested on: Bacillus cereus; assay: Antimicrobial activity against Bacillus cereus MTCC 619 by paper disk diffusion method; assay type: functional
[17] = tested on: Aspergillus niger; assay: Antimicrobial activity against Aspergillus niger MTCC 282 by paper-disk diffusion method; assay type: functional
[18] = tested on: Mycobacterium tuberculosis; assay: Antimicrobial activity against Mycobacterium tuberculosis H37Rv by Lowenstein and Jensen method; assay type: functional; conditions: for MIC: Mycobacterium tuberculosis, H37Rv
[19] = tested on: Aspergillus niger; assay: Antimicrobial activity against Aspergillus niger MTCC 282 by agar streak dilution method; assay type: functional
[20] = tested on: Proteus vulgaris; assay: Antimicrobial activity against Proteus vulgaris MTCC 1771 by agar streak dilution method; assay type: functional
[21] = tested on: Escherichia coli; assay: Antimicrobial activity against Escherichia coli MTCC 739 by paper disk diffusion method; assay type: functional
[22] = tested on: Escherichia coli; assay: Antimicrobial activity against Escherichia coli MTCC 739 by agar streak dilution method; assay type: functional
[23] = tested on: Proteus vulgaris; assay: Antimicrobial activity against Proteus vulgaris MTCC 1771 by paper disk diffusion method; assay type: functional
[24] = tested on: Staphylococcus aureus; assay: Antimicrobial activity against Staphylococcus aureus MTCC 96 by agar streak dilution method; assay type: functional
[25] = tested on: Klebsiella pneumoniae; assay: Antimicrobial activity against Klebsiella pneumoniae MTCC 109 by paper disk diffusion method; assay type: functional
[26] = tested on: Pseudomonas aeruginosa; assay: Antimicrobial activity against Pseudomonas aeruginosa MTCC 741 by paper disk diffusion method; assay type: functional
[27] = tested on: Aspergillus clavatus; assay: Antimicrobial activity against Aspergillus clavatus MTCC 1323 by paper disk diffusion method; assay type: functional
[28] = tested on: Mycobacterium tuberculosis; assay: Antimicrobial activity against Mycobacterium tuberculosis H37Rv at 100 ug/ml by BACTEC MGIT method; assay type: functional, organism-based

Compound | MIC [1] [µg/mL] | inhibition zone (IZ) [2] [mm] | inhibition zone (IZ) [3] | inhibition zone (IZ) [4] [mm] | inhibition zone (IZ) [5] [mm] | inhibition (INH) [6] [%] | MIC [6] [µg/mL] | inhibition zone (IZ) [7] [mm] | MIC [8] [µg/mL] | inhibition zone (IZ) [9] [mm] | MIC [10] [µg/mL] | MIC [11] [µg/mL] | MIC [12] [µg/mL] | MIC [13] [µg/mL] | MIC [14] [µg/mL] | MIC [15] [µg/mL] | inhibition zone (IZ) [16] [mm] | inhibition zone (IZ) [17] [mm] | inhibition (percent inhibition) [18] [%] | MIC [18] [µg/mL] | also measured
N#Cc1ccc(Nc2nc(Oc3ncnc4ccccc34)nc(N3CCN(C(c4ccccc4)c4ccc(Cl)cc4)CC3)n2)cc1C(F)(F)F (stereo not drawn) | 6.25 (≈ 9 µM) | 24 | inactive | 27 | 29 | 99 | 6.25 (≈ 9 µM) | 24 | 25 (≈ 36 µM) | 24 | 12.5 (≈ 18 µM) | 25 (≈ 36 µM) | 6.25 (≈ 9 µM) | 50 (≈ 72 µM) | 12.5 (≈ 18 µM) | 6.25 (≈ 9 µM) | 26 | 24 | 99 | 6.25 (≈ 9 µM) | MIC [19]: 12.5 µg/mL (≈ 18 µM); MIC [20]: 50 µg/mL (≈ 72 µM); inhibition zone (IZ) [21]: 26 mm; MIC [22]: 25 µg/mL (≈ 36 µM); inhibition zone (IZ) [23]: 23 mm; MIC [24]: 6.25 µg/mL (≈ 9 µM); inhibition zone (IZ) [25]: 24 mm; inhibition zone (IZ) [26]: 28 mm; inhibition zone (IZ) [27]: 24 mm
N#Cc1ccc(Nc2nc(Oc3ncnc4ccccc34)nc(N3CCN(c4ccccc4Cl)CC3)n2)cc1C(F)(F)F | 25 (≈ 41.4 µM) | 27 | inactive | 26 | 26 |  | > 6.25 | 25 | 100 (≈ 166 µM) | 24 | 50 (≈ 82.8 µM) | 12.5 (≈ 20.7 µM) | 50 (≈ 82.8 µM) | 12.5 (≈ 20.7 µM) | 12.5 (≈ 20.7 µM) | 6.25 (≈ 10.3 µM) | 24 | 22 | 97 | 25 (≈ 41.4 µM) | inhibition [28]: inactive; MIC [19]: 50 µg/mL (≈ 82.8 µM); MIC [20]: 25 µg/mL (≈ 41.4 µM); inhibition zone (IZ) [21]: 22 mm; MIC [22]: 100 µg/mL (≈ 166 µM); inhibition zone (IZ) [23]: 24 mm; MIC [24]: 12.5 µg/mL (≈ 20.7 µM); inhibition zone (IZ) [25]: 23 mm; inhibition zone (IZ) [26]: 24 mm; inhibition zone (IZ) [27]: 22 mm
CC[C@@H](CO)NCCN[C@@H](CC)CO [ETHAMBUTOL] |  |  |  |  |  | 99 | 3.12 (≈ 15.3 µM) |  |  |  |  |  |  |  |  |  |  |  |  |  | 
NC(=O)c1cnccn1 [PYRAZINAMIDE] |  |  |  |  |  | 99 | 6.25 (≈ 50.8 µM) |  |  |  |  |  |  |  |  |  |  |  |  |  | 
CO[C@H]1/C=C/O[C@@]2(C)Oc3c(C)c(O)c4c(O)c(c(/C=N/N5CCN(C)CC5)c(O)c4c3C2=O)NC(=O)/C(C)=C\C=C\[C@H](C)[C@H](O)[C@@H](C)[C@@H](O)[C@@H](C)[C@H](OC(C)=O)[C@@H]1C [RIFAMPIN] |  |  |  |  |  | 99 | 0.25 (≈ 0.304 µM) |  |  |  |  |  |  |  |  |  |  |  |  |  | 
COc1ccc(CN2CCN(c3nc(Nc4ccc(C#N)c(C(F)(F)F)c4)nc(Oc4ncnc5ccccc45)n3)CC2)c(OC)c1OC | 12.5 (≈ 18.6 µM) | 24 | inactive | 25 | 29 | 99 | 6.25 (≈ 9.28 µM) | 26 | 6.25 (≈ 9.28 µM) | 25 | 6.25 (≈ 9.28 µM) | 12.5 (≈ 18.6 µM) | 3.12 (≈ 4.63 µM) | 25 (≈ 37.1 µM) | 6.25 (≈ 9.28 µM) | 25 (≈ 37.1 µM) | 27 | 25 | 99 | 6.25 (≈ 9.28 µM) | MIC [19]: 6.25 µg/mL (≈ 9.28 µM); MIC [20]: 6.25 µg/mL (≈ 9.28 µM); inhibition zone (IZ) [21]: 28 mm; MIC [22]: 6.25 µg/mL (≈ 9.28 µM); inhibition zone (IZ) [23]: 25 mm; MIC [24]: 3.12 µg/mL (≈ 4.63 µM); inhibition zone (IZ) [25]: 26 mm; inhibition zone (IZ) [26]: 26 mm; inhibition zone (IZ) [27]: 25 mm
